According to patent publication US20080039455A1, “PYRAZOLOPYRIMIDINES AND SALTS THEREOF, PHARMACEUTICAL COMPOSITIONS COMPRISING SAME, METHODS OF PREPARING SAME AND USES OF SAME” (priority 2006, published 2008):

What follows are molecules tested against T1, human recombinant ALK1 (GST fused to ALK1 intracellular domain [His142-Gln503]) (Homo sapiens, UniProt P37023) (assay: ALK1-Kinase Flashplate-Assay). Conditions: 0.5 μM ATP, biotinylated α-casein substrate; read-out: Assay 1 (ALK1-Kinase Flashplate-Assay IC50 class).
T1 construct: GST fused to ALK1 intracellular domain [His142-Gln503]; made in house
T1 sequence (P37023 142-503): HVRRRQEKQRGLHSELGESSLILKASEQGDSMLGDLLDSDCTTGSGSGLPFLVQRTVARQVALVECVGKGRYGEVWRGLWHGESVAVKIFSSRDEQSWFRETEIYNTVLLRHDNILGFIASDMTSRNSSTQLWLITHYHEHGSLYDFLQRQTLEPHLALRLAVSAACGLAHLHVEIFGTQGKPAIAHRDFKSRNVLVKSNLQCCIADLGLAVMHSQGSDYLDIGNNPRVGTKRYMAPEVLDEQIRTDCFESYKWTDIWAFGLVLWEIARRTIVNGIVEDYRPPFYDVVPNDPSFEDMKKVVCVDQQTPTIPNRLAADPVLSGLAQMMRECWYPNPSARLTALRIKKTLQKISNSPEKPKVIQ
Type: biochemical
Summary of the method: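 Radiometric Flashplate assay at 20 °C: GST-ALK1 intracellular domain (5 ng/well) with 1 μM biotinylated bovine α-casein, 0.5 μM ATP plus [γ-33P]ATP in Tris pH 8.0, 1 mM MnCl2, 1% or 5% DMSO, 60 min. Normalised to no-inhibitor (0%) and 10 mM EDTA (100%); IC50 by 4-parameter fit.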

Row | SMILES | IC50 [nM]
1 | COc1ccc(Nc2ccn3ncc(-c4cccc(NS(C)(=O)=O)c4)c3n2)cn1 [Example 197, N-{3-[5-(6-Methoxy-pyridin-3-ylamino)-pyrazolo[1,5-a]pyrimidin-3-yl]-phenyl}-methanesulfonamide] | 1000 to 10000
2 | COc1ccc(-c2cnn3ccc(Nc4cc(OC)c(OC)c(OC)c4)nc23)cc1OC [Example 462, [3-(3,4-Dimethoxy-phenyl)-pyrazolo[1,5-a]pyrimidin-5-yl]-(3,4,5-trimethoxy-phenyl)-amine] | 1000 to 10000
3 | COc1cncc(-c2cnn3ccc(Nc4ccc(O)cc4)nc23)c1 [Example 87, 4-[3-(5-Methoxy-pyridin-3-yl)-pyrazolo[1,5-a]pyrimidin-5-ylamino]-phenol] | < 1000
4 | COc1ccc(-c2cnn3ccc(NCc4cccnc4)nc23)cn1 [Example 171, [3-(6-Methoxy-pyridin-3-yl)-pyrazolo[1,5-a]pyrimidin-5-yl]-pyridin-3-ylmethyl-amine] | 1000 to 10000
5 | OC1CCC(Nc2ccn3ncc(-c4ccc(F)c(Cl)c4)c3n2)CC1 (stereo not shown) [Example 373, 4-[3-(3-Chloro-4-fluoro-phenyl)-pyrazolo[1,5-a]pyrimidin-5-ylamino]-cyclohexanol] | 1000 to 10000
6 | COc1cc(-c2cnn3ccc(Nc4ccc(F)c(Cl)c4)nc23)cc(OC)c1OC [Example 259, (3-Chloro-4-fluoro-phenyl)-[3-(3,4,5-trimethoxy-phenyl)-pyrazolo[1,5-a]pyrimidin-5-yl]-amine] | 1000 to 10000
7 | CC(=O)Nc1cccc(-c2cnn3ccc(Nc4cccc(Cl)c4)nc23)c1 [Example 453, N-{3-[5-(3-Chloro-phenylamino)-pyrazolo[1,5-a]pyrimidin-3-yl]-phenyl}-acetamide] | 1000 to 10000
8 | CC(=O)c1cccc(-c2cnn3ccc(NCc4ccncc4)nc23)c1 [Example 216, 1-(3-{5-[(Pyridin-4-ylmethyl)-amino]-pyrazolo[1,5-a]pyrimidin-3-yl}-phenyl)-ethanone] | 1000 to 10000
9 | NC(=O)c1cccc(-c2cnn3ccc(NCc4cccnc4)nc23)c1 [Example 223, 3-{5-[(Pyridin-3-ylmethyl)-amino]-pyrazolo[1,5-a]pyrimidin-3-yl}-benzamide] | 1000 to 10000
10 | FC(F)(F)c1cccc(-c2cnn3ccc(NCc4ccncc4)nc23)c1 [Example 397, Pyridin-4-ylmethyl-[3-(3-trifluoromethyl-phenyl)-pyrazolo[1,5-a]pyrimidin-5-yl]-amine] | 1000 to 10000
11 | Oc1cccc(-c2cnn3ccc(Nc4ccccc4)nc23)c1 [Example 271, 3-(5-Phenylamino-pyrazolo[1,5-a]pyrimidin-3-yl)-phenol] | 1000 to 10000
12 | c1ccc(Oc2ccc(Nc3ccn4ncc(-c5ccncc5)c4n3)cc2)cc1 [Example 468, (4-Phenoxy-phenyl)-(3-pyridin-4-yl-pyrazolo[1,5-a]pyrimidin-5-yl)-amine] | 1000 to 10000
13 | CC(=O)c1cccc(-c2cnn3ccc(NCc4cccnc4)nc23)c1 [Example 227, 1-(3-{5-[(Pyridin-3-ylmethyl)-amino]-pyrazolo[1,5-a]pyrimidin-3-yl}-phenyl)-ethanone] | 1000 to 10000
14 | COc1cc(Nc2ccn3ncc(-c4ccncc4)c3n2)cc(OC)c1OC [Example 4, (3-Pyridin-4-yl-pyrazolo[1,5-a]pyrimidin-5-yl)-(3,4,5-trimethoxy-phenyl)-amine] | 1000 to 10000
15 | COc1cccc(-c2cnn3ccc(Nc4ccc(O)cc4)nc23)c1 [Example 192, 4-[3-(3-Methoxy-phenyl)-pyrazolo[1,5-a]pyrimidin-5-ylamino]-phenol] | < 1000
16 | COc1ccc(-c2cnn3ccc(Nc4ccc(O)cc4)nc23)c(OC)c1 [Example 435, 4-[3-(2,4-Dimethoxy-phenyl)-pyrazolo[1,5-a]pyrimidin-5-ylamino]-phenol] | 1000 to 10000
17 | Cc1ccc(Nc2ccn3ncc(-c4cccc(CO)c4)c3n2)cc1NS(C)(=O)=O [Example 431, N-{5-[3-(3-Hydroxymethyl-phenyl)-pyrazolo[1,5-a]pyrimidin-5-ylamino]-2-methyl-phenyl}-methanesulfonamide] | 1000 to 10000
18 | COc1cc(-c2cnn3ccc(Nc4ccc(Oc5ccccc5)cc4)nc23)cc(OC)c1OC [Example 254, (4-Phenoxy-phenyl)-[3-(3,4,5-trimethoxy-phenyl)-pyrazolo[1,5-a]pyrimidin-5-yl]-amine] | 1000 to 10000
19 | CN(C)CCNC(=O)c1cccc(-c2cnn3ccc(Nc4ccc(O)cc4)nc23)c1 [Example 326, N-(2-Dimethylamino-ethyl)-3-[5-(4-hydroxy-phenylamino)-pyrazolo[1,5-a]pyrimidin-3-yl]-benzamide] | 1000 to 10000
20 | OCc1cccc(-c2cnn3ccc(NC4CCC(O)CC4)nc23)c1 (stereo not shown) [Example 158, 4-[3-(3-Hydroxymethyl-phenyl)-pyrazolo[1,5-a]pyrimidin-5-ylamino]-cyclohexanol] | 1000 to 10000

Row | SMILES | IC50 [nM]
21 | COc1ccc(-c2cnn3ccc(NC4CCC(O)CC4)nc23)cc1OC (stereo not shown) [Example 69, 4-[3-(3,4-Dimethoxy-phenyl)-pyrazolo[1,5-a]pyrimidin-5-ylamino]-cyclohexanol] | < 1000
22 | COc1ccc(Nc2ccn3ncc(-c4ccc(O)cc4)c3n2)cn1 [Example 13, 4-[5-(6-Methoxy-pyridin-3-ylamino)-pyrazolo[1,5-a]pyrimidin-3-yl]-phenol] | 1000 to 10000
23 | COc1ccc(-c2cnn3ccc(NC4CCC(O)CC4)nc23)cc1 (stereo not shown) [Example 155, 4-[3-(4-Methoxy-phenyl)-pyrazolo[1,5-a]pyrimidin-5-ylamino]-cyclohexanol] | 1000 to 10000
24 | COc1cc(-c2cnn3ccc(NCCO)nc23)cc(OC)c1OC [Example 120, 2-[3-(3,4,5-Trimethoxy-phenyl)-pyrazolo[1,5-a]pyrimidin-5-ylamino]-ethanol] | < 1000
25 | COc1cccc(-c2cnn3ccc(Nc4ccc(OC)nc4)nc23)c1 [Example 196, [3-(3-Methoxy-phenyl)-pyrazolo[1,5-a]pyrimidin-5-yl]-(6-methoxy-pyridin-3-yl)-amine] | < 1000
26 | COc1cccc(-c2cnn3ccc(NCc4ccncc4)nc23)c1 [Example 215, [3-(3-Methoxy-phenyl)-pyrazolo[1,5-a]pyrimidin-5-yl]-pyridin-4-ylmethyl-amine] | 1000 to 10000
27 | OCCNc1ccn2ncc(-c3cccc(OC(F)(F)F)c3)c2n1 [Example 122, 2-[3-(3-Trifluoromethoxy-phenyl)-pyrazolo[1,5-a]pyrimidin-5-ylamino]-ethanol] | 1000 to 10000
28 | CC(=O)c1cccc(-c2cnn3ccc(Nc4ccc(C(C)C)cc4)nc23)c1 [Example 266, 1-{3-[5-(4-Isopropyl-phenylamino)-pyrazolo[1,5-a]pyrimidin-3-yl]-phenyl}-ethanone] | 1000 to 10000
29 | OC1CCC(Nc2ccn3ncc(-c4cccnc4)c3n2)CC1 (stereo not shown) [Example 67, 4-(3-Pyridin-3-yl-pyrazolo[1,5-a]pyrimidin-5-ylamino)-cyclohexanol] | 1000 to 10000
30 | COc1cc(Nc2ccn3ncc(-c4cccc(C(=O)NCCO)c4)c3n2)cc(OC)c1OC [Example 79, N-(2-Hydroxy-ethyl)-3-[5-(3,4,5-trimethoxy-phenylamino)-pyrazolo[1,5-a]pyrimidin-3-yl]-benzamide] | 1000 to 10000
31 | COc1ncc(-c2cnn3ccc(Nc4ccc(O)cc4)nc23)c(OC)n1 [Example 46, 4-[3-(2,4-Dimethoxy-pyrimidin-5-yl)-pyrazolo[1,5-a]pyrimidin-5-ylamino]-phenol] | < 1000
32 | OCc1cccc(-c2cnn3ccc(NCc4cccnc4)nc23)c1 [Example 170, (3-{5-[(Pyridin-3-ylmethyl)-amino]-pyrazolo[1,5-a]pyrimidin-3-yl}-phenyl)-methanol] | 1000 to 10000
33 | CC(=O)c1cccc(-c2cnn3ccc(Nc4ccc(O)cc4)nc23)c1 [Example 193, 1-{3-[5-(4-Hydroxy-phenylamino)-pyrazolo[1,5-a]pyrimidin-3-yl]-phenyl}-ethanone] | 1000 to 10000
34 | Oc1ccc(-c2cnn3ccc(Nc4ccc(N5CCOCC5)cc4)nc23)cc1 [Example 28, 4-[5-(4-Morpholin-4-yl-phenylamino)-pyrazolo[1,5-a]pyrimidin-3-yl]-phenol] | 1000 to 10000
35 | COc1cc(-c2cnn3ccc(NC4CCC(O)CC4)nc23)cc(OC)c1OC (stereo not shown) [Example 474, 4-[3-(3,4,5-Trimethoxy-phenyl)-pyrazolo[1,5-a]pyrimidin-5-ylamino]-cyclohexanol] | < 1000
36 | Oc1ccc(-c2cnn3ccc(NCc4cccnc4)nc23)cc1 [Example 293, 4-{5-[(Pyridin-3-ylmethyl)-amino]-pyrazolo[1,5-a]pyrimidin-3-yl}-phenol] | 1000 to 10000
37 | N#Cc1ccc(-c2cnn3ccc(NCCO)nc23)cc1 [Example 119, 4-[5-(2-Hydroxy-ethylamino)-pyrazolo[1,5-a]pyrimidin-3-yl]-benzonitrile] | 1000 to 10000
38 | OCCNc1ccn2ncc(-c3ccc4c(c3)OCO4)c2n1 [Example 70, 2-(3-Benzo[1,3]dioxol-5-yl-pyrazolo[1,5-a]pyrimidin-5-ylamino)-ethanol] | 1000 to 10000
39 | COc1ccc(Nc2ccn3ncc(-c4cccc(N)c4)c3n2)cn1 [Example 337, [3-(3-Amino-phenyl)-pyrazolo[1,5-a]pyrimidin-5-yl]-(6-methoxy-pyridin-3-yl)-amine] | 1000 to 10000
40 | OCCNc1ccn2ncc(-c3ccc(O)cc3)c2n1 [Example 74, 4-[5-(2-Hydroxy-ethylamino)-pyrazolo[1,5-a]pyrimidin-3-yl]-phenol] | 1000 to 10000
